Experimental data from patent publication US20110183946A1, “Complexes Comprising alpha2-Adrenergic Receptor Agonists and Methods of Providing Neuroprotection or Treating or Inhibiting Progression of Glaucoma” (priority 2007, published 2011).
Values after ≈ are worked out from the molar mass of the structure shown. Where two headings read alike, the source gives them in different places. Blank lines part the entries; values can stand above or below the compound they belong to.

Legend:
[1] = Solubility of various brimonidine complexes in water at the resulting pH; type: physicochemical; conditions: for pH: resulting pH of the aqueous solubility sample
Description: In this experiment, various complexes comprising Brimonidine and counterions of one of the following acids were prepared: pamoic acid, capric acid, sebacic acid, hippuric acid, naproxen, 1-hydroxy-2-naphthoic acid, palmitic acid, and stearic acid. Variations of the procedure described in the following disclosure may be made within the skill of a person of ordinary skill in the art without departing from the scope of the present invention. Brimonidine free base in a preselected solvent was heated to about 60-70° C. The organic acid in another portion of the solvent was added into the heated mixture or was included in the original mixture before heating. The heating of the combined mixture was continued for an additional period, which was not critical. In certain embodiments, an antisolvent was added to the combined mixture, preferably at a lower temperature, to effect a precipitation of the complex of brimonidine and the counterion. It may be advantageous to remove a portion of the solvent and antisolvent to assist the precipitation. In certain other embodiments, the heated combined mixture was cooled down to a lower temperature, such as room temperature (or below) to effect the precipitation of the complex of brimonidine and the counterion. The precipitate was then filtered and dried to yield the final complex.

physchem = assay: physchem
Description: Brimonidine and pamoic acid, at a molar ratio of 1:1, were mixed and dispersed in N-methylpyrrolidone (“NMP”). The solution of brimonidine and pamoic acid in NMP was heated while stirring to dissolve brimonidine (the final temperature, typically less than 70° C., was chosen so as not to lose significant amount of solvent). […] The precipitation was allow to proceed; for example, for several hours or overnight. […] Other solvents, known to people skilled in the art, may be used for a compound that provides the counterion to the α2-adrenergic agonist, as appropriate.

[2] = see US Patent Application Publication 2005/0244463 A1; cited from earlier work

Compound: Brc1c(NC2=NCCN2)ccc2nccnc12.O=C(O)c1ccc2ccccc2c1O [1-hydroxy-2-naphtoate]
pH [1]: 6.8

Compound: Brc1c(NC2=NCCN2)ccc2nccnc12 [brimonidine free base, 5-bromo-N-(2-imidazolin-2-yl)-6-quinoxalinamine]
solubility ([1]; in water at the resulting pH (pH in column 1 of the same row)): 48 to 200 µg/mL (≈ 164 to 685 µM)
pH [1]: 8.1-8.9
solubility at 11 days (physchem; water, thermodynamic from solid): 215 µg/mL (≈ 736 µM)

Compound: brimonidine tartrate
Solubility in water [2]: about 34 mg/ml
Solubility in water (physchem; water, after 11 days on a twist shaker): 41588 µg/mL

Second part, the compound after the results:

pH [1]: 5.3-5.4
Compound: naphthoate

pH [1]: 7.2-7.5
Solubility in water (physchem): 207 µg/mL
Compound: Brc1c(NC2=NCCN2)ccc2nccnc12.O=C(O)c1cc2ccccc2c(Cc2c(O)c(C(=O)O)cc3ccccc23)c1O [brimonidine pamoate]
